The values below come from paper PMC12711018, “Structural flexibility of the nicotinamide group of NADH in butanol dehydrogenase YqdH from Fusobacterium nucleatum” (PLOS One, 2025).

The test concerns the target T1, FnYqdH (butanol dehydrogenase YqdH) (Fusobacterium nucleatum, UniProt Q8R612).
T1 construct: gene FN1415; recombinant from pPRO-EX-HTA in E. coli BL21 (DE3); His6 tag removed with TEV protease
T1 sequence (Q8R612 1-385): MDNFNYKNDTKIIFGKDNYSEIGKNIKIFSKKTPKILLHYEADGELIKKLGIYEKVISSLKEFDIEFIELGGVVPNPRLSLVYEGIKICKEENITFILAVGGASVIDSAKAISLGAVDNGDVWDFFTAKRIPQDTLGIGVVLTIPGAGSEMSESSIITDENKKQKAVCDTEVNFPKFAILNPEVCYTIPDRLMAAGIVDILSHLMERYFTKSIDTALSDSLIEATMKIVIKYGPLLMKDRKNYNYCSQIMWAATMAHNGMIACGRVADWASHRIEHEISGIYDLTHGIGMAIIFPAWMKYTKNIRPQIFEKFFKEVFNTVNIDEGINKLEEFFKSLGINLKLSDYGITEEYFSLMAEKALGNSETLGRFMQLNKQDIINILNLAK
Put plainly: X-ray crystallography, crystal soaked with NADH ([…] A). The format is binding. The note with it: soak 1 min in 10 mM NADH, 2 mM Co2+, 25% glycerol; crystals grown in 0.1 M HEPES pH 7.5, 1.8 M ammonium phosphate; only the ADP part is seen and modelled as ADP, nicotinamide part disordered.

For the molecule `NC(=O)C1=CN([C@@H]2O[C@H](COP(=O)(O)OP(=O)(O)OC[C@H]3O[C@@H](n4cnc5c(N)ncnc54)[C@H](O)[C@@H]3O)[C@@H](O)[C@H]2O)C=CC1` [NADH], the “X-ray crystallography, crystal soaked with NADH (2.70 A)” value was “presence of the adenine and diphosphate groups of the NADH molecule”.
